Assay results from patent US20060084697A1, “Pi3k antagonists as radiosensitizers” (priority 2002, published 2006).

Key:
HUVEC cells [1] = experiment: Apoptotic nuclei in HUVEC, H&E staining; type: cell-based, human; conditions: wortmannin 4 nM or LY294002 2 μM, 24 hours
Protocol: To determine whether PI3K antagonists enhance the activities of intrinsic cell death mechanisms induced by irradiation, apoptosis in HUVEC cells was studied following PI3K inhibition. HUVEC cells were treated with wortmannin (4 nM) or with LY294002 (2 μM) as described in Example 2. Cells were treated 30 minutes later with 3 Gy of ionizing radiation. Cultures were stained 24 hours later with hematoxylin and eosin (H&E) to reveal apoptotic nuclei. Stained cells were then examined by light microscopy. For each treatment group, four high power fields (40× objective) were examined, and both the number of cells with apoptotic nuclei and the total number of cells were determined. From these numbers, the percentage of apoptotic cells for each group was calculated.

HUVEC cells [2] = experiment: Clonogenic survival analysis of HUVEC; type: cell-based, human
Protocol: The ability of PI3K antagonist to suppress the clonogenic potential of HUVEC cells treated with radiation was assayed by clonogenic survival analysis. The ability of HUVEC cells treated with LY294002 30 minutes prior to irradiation to form colonies was compared to that of HUVEC cells treated with either radiation or LY294002 alone, and also to that of untreated HUVEC cells. […] Briefly, groups of three HUVEC culture plates were treated at each of four radiation dose levels: 2, 4, 6, and 8 Gy, either with or without prior treatment with PI3K antagonists as described in Example 2. After treatment with radiation and/or antagonists, cells were trypsinized, counted by hemocytometer, and subcultured into fresh medium. After 14 days, the cells were fixed with cold methanol and stained with 1% methylene blue. Colonies with greater than 50 cells were counted and the surviving fraction was determined.
To determine whether broad spectrum RTK inhibition enhances the cytotoxic effects of radiation on vascular endothelium, SU11248 was added 30 minutes prior to irradiation. HUVECs were treated with vehicle control, and either 100 nM SU11248 orvehicle combined with 6 Gy.

[3] = tested on: GL261 tumor blood vessels; experiment: Tumor vascular window model, vascular length density, GL261; type: in vivo, mouse
Protocol: Penicillin/streptomycin solution (200 μl; available from GIBCO™ Invitrogen Corporation of Carlsbad, Calif., United States of America) was injected into the hind limb of the mouse prior to preparation of the window chamber. The dorsal skin fold window chamber (Leunig et al., 1992) was prepared using a 3-gram plastic frame, which was applied to the skin of a test animal and remained attached for the duration of the study. To prepare a test animal for application of the plastic frame, the dorsal midline was found along the animal's back, and a clip was placed to hold the skin in position. […] Scanned slides were analyzed using IMAGE-PRO® software (Media Cybernetics, Silver Spring, Md., United States of America) as described below. […] Tumor blood vessels were quantified using IMAGE-PRO® software, which quantified the vascular length density of blood vessel within the microscopic field. The mean vascular length density and the standard error of the mean were calculated for each treatment group. The mean and 95% confidence intervals of vascular length density for each treatment group were calculated and variance was analyzed by the General Linear Models and Bonferroni t test. […] The mean vascular length densities of treatment group were determined at 0 hours, which was the time at which the radiation treatments were commenced. […]

GL261 glioma tumors = experiment: Power Doppler sonography of tumor blood flow, GL261 hind limb tumors; type: in vivo, C57BL/6J mice
Text: Power Doppler sonography was used to study the response of tumor blood vessels to ionizing radiation. This method utilizes amplitude to measure blood flow in microvasculature. Tumors were imaged with a 10-5 MHz ENTOS® linear probe (Advanced Technology Laboratories, Inc., Bothell, Wash., United States of America) attached to an HDI® 5000 diagnostic ultrasound system (Advanced Technology Laboratories, Inc.). Power Doppler sonography images were obtained with the power gain set to 82%. Care was taken to minimize motion artifact. A 20-frame cineloop sweep of the entire tumor was obtained with the probe perpendicular to the long axis of the lower extremity along the entire length of the tumor. The images were analyzed using HDI® software (Advanced Technology Laboratories, Inc). This software allows direct evaluation of Power Doppler cineloop raw data. Color area was recorded for the entire tumor. Five mice were included in each treatment group. Values for color area were averaged for each tumor set and treated groups were compared to controls using the unpaired student t-test. GL261 glioma tumors were implanted in the hind limb of C57BL/6J mice as described in […] et al., 1998. […] Power Doppler analysis of tumor blood flow was measured on day 0, day 3, and day 7 after radiation treatment. […]

O=c1cc(N2CCOCC2)oc2c(-c3ccccc3)cccc12 [LY294002, 2-(4-Morpholinyl)-8-phenyl-4H-1-benzopyran-4-one]
apoptotic nuclei, % of cells (HUVEC cells [1]; HUVEC pretreated 30 minutes before 3 Gy): 16% | apoptotic cells (HUVEC cells [1]; unirradiated HUVEC): 2% | radiation-induced cytotoxicity compared to radiation alone (HUVEC cells [2]; HUVEC treated 30 minutes prior to 2, 4, 6, 8 Gy, p<0.05): significantly enhanced | plating efficiency, % of untreated control cells (HUVEC cells [2]; unirradiated HUVEC treated for 30 minutes): 70% | mean vascular length density at 96 hours, % of 0 hour ([3]; 3 mg/Kg intraperitoneally 15 minutes prior to 3 Gy): 5% | mean vascular length density at 96 hours, % of 0 hour ([3]; 3 mg/Kg intraperitoneally, no radiation, p=0.41): 85% | tumor blood flow (GL261 glioma tumors; LY294002 alone): unchanged | tumor blood flow (GL261 glioma tumors; LY294002 prior to 3 Gy irradiation): obliterated
